The text below walks through data of patent US8518916B2, “Heterocyclic derivatives as M-GLU5 antagonists” (Recordati Ireland Limited, priority 2007, dated 2013).

One assay deals with conscious rats. The experiment in a line: Cystometry in conscious rats (bladder volume capacity). The class given is in vivo, rat. The note with it: for "In vivo" cystometry MED (Minimal Effective Dose that induces statistically significant increase of bladder volume capacity): oral; for effect on bladder volume capacity: 1-3 h after treatment. As for the experimental part:
Male Sprague-Dawley rats [Crl: CD® (SD) IGS BR] of 300-400 g b.w. supplied by Charles River Italia were used. The animals were housed with free access to food and water and maintained on a forced 12-hour-light/12-hour-dark cycle at 22-24° C. of temperature, except during the experiment. To quantify urodynamic parameters in conscious rats, cystometrographic studies were performed according to the procedure previously reported (Guarneri et al., Pharmacol. Res. 24: 175, 1991).
Briefly, the rats were anaesthetised by intraperitoneal administration of 3 ml/kg of Equithensin solution (pentobarbital 30 mg/kg and chloral hydrate 125 mg/kg) and placed in a supine position. An approximately 10 mm long midline incision was made in the shaved and cleaned abdominal wall. The urinary bladder was gently freed from adhering tissues, emptied and then cannulated via an incision in the bladder body, using a polyethylene cannula (0.58 mm internal diameter, 0.96 mm external diameter) which was permanently sutured with silk thread. The cannula was exteriorised through a subcutaneous tunnel in the retroscapular area, where it was connected to a plastic adapter in order to avoid the risk of removal by the animal. For drug testing, the rats were utilised one day after implantation.
On the day of the experiment, the rats were placed in modified Bollman cages, i.e., restraining cages that were large enough to permit the rats to adopt a normal crouched posture, but narrow enough to prevent turning around. After a stabilisation period of about 20 minutes, the free tip of the bladder cannula was connected through a T-shaped tube to a pressure transducer (Statham P23XL) and to a peristaltic pump (Gilson Minipuls 2) for continuous infusion of a warm (37° C.) saline solution into the urinary bladder, at a constant rate of 0.1 ml/minute. The intraluminal-pressure signal during infusion of saline into the bladder (cystometrogram) was continuously recorded on a polygraph (Rectigraph-8K San-ei with BM614/2 amplifier from Biomedica Mangoni) or stored on PC by data acquisition system (PowerLab, Chart 4 software, AD Instruments). From the cystometrogram, bladder volume capacity (BVC) was evaluated. BVC (in ml) is defined as the volume of saline infused into the bladder necessary to induce detrusor contraction followed by micturition. Basal BVC value was evaluated as the mean of the values observed in the cystometrograms recorded in an initial period of 30-60 minutes. At this point in the assay, the infusion was interrupted and the test compounds were administered orally by a stomach tube. The bladder infusion restarted and changes in BVC were evaluated from the mean values obtained in the cystometrograms observed during 1, 2, and 3 hours after treatment. The compounds were administered in a volume of 2 ml/kg. Groups of control animals received the same amount of vehicle corresponding to a solution 0.5% methocel in water.
Under the given test conditions, measurement of BVC is equivalent to measurement of interval time between micturitions.
Each experimental group was composed of 4-11 animals. All data were expressed as mean±standard error. The percent change of BVC versus the basal value, as well as Δ value (difference in ml) of BVC (BVC at time “x” minus basal value), were also evaluated for each rat/time. In the figures, data are reported as % change versus the basal value.
Statistical analysis on BVC values, as well as on Δ values, was performed by S.A.S./STAT software, version 6.12. The difference between vehicle and active treatment effect was evaluated on Δ values of BVC, whereas the difference between the values at different times versus the basal values was evaluated on original BVC data.

In the next assay the target is T1, mGlu5 receptor (Rattus norvegicus, UniProt P31424).
T1 construct: from tissue; host or cells: forebrain (cortex, striatum and hippocampus) of male Sprague Dawley rats
T1 sequence (P31424 21-1203): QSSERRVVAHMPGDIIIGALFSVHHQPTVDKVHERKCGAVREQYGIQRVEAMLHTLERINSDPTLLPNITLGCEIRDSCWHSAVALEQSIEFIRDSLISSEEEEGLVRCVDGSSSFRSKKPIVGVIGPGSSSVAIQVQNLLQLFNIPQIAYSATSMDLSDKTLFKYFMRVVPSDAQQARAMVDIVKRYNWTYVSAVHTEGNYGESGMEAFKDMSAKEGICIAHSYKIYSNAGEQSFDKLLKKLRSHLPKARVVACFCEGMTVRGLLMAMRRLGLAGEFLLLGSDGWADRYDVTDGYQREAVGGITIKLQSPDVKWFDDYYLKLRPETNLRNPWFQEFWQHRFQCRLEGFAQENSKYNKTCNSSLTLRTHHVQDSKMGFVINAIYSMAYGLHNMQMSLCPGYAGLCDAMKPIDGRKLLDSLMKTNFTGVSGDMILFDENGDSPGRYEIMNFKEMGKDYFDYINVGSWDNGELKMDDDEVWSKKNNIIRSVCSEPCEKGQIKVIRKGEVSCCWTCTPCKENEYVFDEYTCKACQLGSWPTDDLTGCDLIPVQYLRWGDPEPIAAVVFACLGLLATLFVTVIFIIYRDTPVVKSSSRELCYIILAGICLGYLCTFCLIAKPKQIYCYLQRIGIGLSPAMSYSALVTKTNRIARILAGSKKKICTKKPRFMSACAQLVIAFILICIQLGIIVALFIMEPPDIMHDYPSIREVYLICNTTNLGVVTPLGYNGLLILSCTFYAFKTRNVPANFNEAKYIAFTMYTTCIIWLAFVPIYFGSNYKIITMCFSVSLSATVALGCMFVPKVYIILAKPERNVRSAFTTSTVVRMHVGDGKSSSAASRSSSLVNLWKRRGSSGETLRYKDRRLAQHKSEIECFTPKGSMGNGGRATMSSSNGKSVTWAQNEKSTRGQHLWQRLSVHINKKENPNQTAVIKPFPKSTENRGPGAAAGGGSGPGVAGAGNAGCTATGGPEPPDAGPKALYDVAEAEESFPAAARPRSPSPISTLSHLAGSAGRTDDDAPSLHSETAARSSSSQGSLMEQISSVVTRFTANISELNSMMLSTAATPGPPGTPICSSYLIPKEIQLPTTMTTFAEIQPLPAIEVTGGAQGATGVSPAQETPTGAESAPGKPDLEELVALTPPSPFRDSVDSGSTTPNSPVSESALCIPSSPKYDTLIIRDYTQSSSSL
Description: Radioligand binding assay ([3H]MPEP) at metabotropic glutamate receptor 5 in rat brain. The following applies: rat forebrain membranes, 4 nM [3H]MPEP; read-out: affinity (Ki) for mGlu5 receptor. As for the experimental part: Radioligand Binding Assay at metabotropic glutamate receptor 5 in rat brain.
a) Membrane preparation: male Sprague Dawley rats (200-300 g, Charles River, Italy) were killed by cervical dislocation and the forebrain (cortex, striatum and hippocampus) was homogenized (2×20 sec) in 50 vols of cold 50 mM Tris buffer pH 7.4, using a Politron homogenizer (Kinematica). Homogenates were centrifuged at 48000×g for 15 min, resuspended in 50 vols of the same buffer, incubated at 37° C. for 15 min and centrifuged and resuspended two more times. The final pellets were frozen and stored at −80° C. until use.
b) Binding assay: pellets from rat forebrain were resuspended in 100 vols of 20 mM HEPES, 2 mM MgCl2, 2 mM CaCl2, pH 7.4. The membranes were incubated in a final volume of 1 ml for 60 min at 25° C. with 4 nM [^3H]MPEP in the absence or presence of competing drugs. Non-specific binding was determined in the presence of 10 μM MPEP (Spooren W. et al., Trends Pharmacol Sci. 22, 331-337, 2001). The incubation was stopped by the addition of cold Tris buffer pH 7.4 and rapid filtration through 0.5% polyethyleneimine pretreated Filtermat 1204-401 (Wallac) filters. The filters were then washed with cold buffer and the radioactivity retained on the filters was counted by liquid scintillation spectrometry. […]

As to `Cc1cccc(C#CC=C2CCN(c3ccccc3C#N)CC2)n1` [Example 43, 2-{4-[3-(6-Methylpyridin-2-yl)prop-2-ynylidene]piperidin-1-yl}benzonitrile], the “"In vivo" cystometry MED (Minimal Effective Dose that induces statistically significant increase of bladder volume capacity)” value in the assay with conscious rats worked out at 3 mg/kg os. On the same count and under the same terms, under `O=[N+]([O-])c1cccnc1N1CCC(=CC#Cc2ccc(F)nc2)CC1` [Example 35, 2-{4-[3-(6-Fluoropyridin-3-yl)prop-2-ynylidene]piperidin-1-yl}-3-nitropyridine] stands 3 mg/kg os. The same measure, in the same setting: then `O=[N+]([O-])c1cccnc1N1CCC(=C(F)C#Cc2ccccc2)CC1` [Example 67, 2-[4-(1-Fluoro-3-phenylprop-2-yn-1-ylidene)piperidin-1-yl]-3-nitropyridine], with 1 mg/kg os. What is called Ki is the dissociation constant of the complex between target and ligand, obtained from inhibition or displacement. As to `Cc1cccc(C#CC=C2CCN(c3ncccc3[N+](=O)[O-])CC2)n1` [Example 1, 2-{4-[3-(6-Methylpyridin-2-yl)prop-2-ynylidene]piperidin-1-yl}-3-nitropyridine], the inhibition constant Ki at mGlu5 receptor came out at 0.37 nM. Further, the “effect on bladder volume capacity” value in the assay with conscious rats (1 mg/kg orally) and with conscious rats (3 mg/kg orally) was “proved effective in increasing the bladder volume capacity” in each case. The “"In vivo" cystometry MED (Minimal Effective Dose that induces statistically significant increase of bladder volume capacity)” value with conscious rats amounted to 3 mg/kg os. `O=[N+]([O-])c1cccnc1N1CCC(=CC#Cc2cc(F)cc(F)c2)CC1` [Example 202, 2-{4-[3-(3,5-Difluorophenyl)prop-2-yn-1-ylidene]piperidin-1-yl}-3-nitropyridine]: the “"In vivo" cystometry MED (Minimal Effective Dose that induces statistically significant increase of bladder volume capacity)” value with conscious rats came to 3 mg/kg os. Still for that read-out and setting: under `Cc1cccc(C#CC=C2CCN(c3ccc(F)cc3[N+](=O)[O-])CC2)n1` [Example 55, 2-{3-[1-(4-Fluoro-2-nitrophenyl)piperidin-4-ylidene]prop-1-ynyl}-6-methylpyridine] stands 0.3 mg/kg os. For `Cc1cccc(C#CC=C2CCN(c3ccc(C#N)cc3[N+](=O)[O-])CC2)n1` [Example 56, 4-{4-[3-(6-Methylpyridin-2-yl)prop-2-ynylidene]piperidin-1-yl}-3-nitrobenzonitrile], the “"In vivo" cystometry MED (Minimal Effective Dose that induces statistically significant increase of bladder volume capacity)” value with conscious rats is given as 1 mg/kg os. As to `Cc1nc(C#Cc2cccnc2)cs1` [MTEP, reference compound], the “effect on bladder volume capacity” value with conscious rats (1 mg/kg orally) is recorded as “only a slight increase of bladder volume capacity”; with conscious rats (3 mg/kg orally) it was “sustained increase”. Moreover, in the assay with conscious rats, the “"In vivo" cystometry MED (Minimal Effective Dose that induces statistically significant increase of bladder volume capacity)” value is reported as 3 mg/kg os. On to `COc1ccc([N+](=O)[O-])c(N2CCC(=CC#Cc3cccc(C)n3)CC2)n1` [Example 6, 6-Methoxy-2-{4-[3-(6-methylpyridin-2-yl)prop-2-ynylidene]piperidin-1-yl}-3-nitropyridine], for which the “"In vivo" cystometry MED (Minimal Effective Dose that induces statistically significant increase of bladder volume capacity)” value with conscious rats worked out at 1 mg/kg os. On to `O=[N+]([O-])c1cccnc1N1CCC(=CC#Cc2ccccc2)CC1` [Example 10, 3-Nitro-2-[4-(3-phenylprop-2-ynylidene)piperidin-1-yl]pyridine], for which the results for the “effect on bladder volume capacity” value in the assay with conscious rats (0.3 mg/kg orally) and in the assay on conscious rats (1 mg/kg orally) were “slightly increased the bladder volume capacity (not statistical significant)” and “proved effective in increasing bladder volume capacity”, respectively. Besides, the “"In vivo" cystometry MED (Minimal Effective Dose that induces statistically significant increase of bladder volume capacity)” value with conscious rats was 1 mg/kg os. For `Cc1cccc(C#CC=C2CCN(c3nc(C)ccc3[N+](=O)[O-])CC2)n1` [Example 5, 6-Methyl-2-[4-[3-(6-methylpyridin-2-yl)prop-2-ynylidene]piperidin-1-yl]-3-nitropyridine], in the assay on conscious rats, the “"In vivo" cystometry MED (Minimal Effective Dose that induces statistically significant increase of bladder volume capacity)” value is 0.1 mg/kg os.

As to `O=[N+]([O-])c1cccnc1N1CCC(=CC#Cc2cccc(Br)c2)CC1` [Example 208, 2-{4-[3-(3-Bromophenyl)prop-2-yn-1-ylidene]piperidin-1-yl}-3-nitropyridine], the “"In vivo" cystometry MED (Minimal Effective Dose that induces statistically significant increase of bladder volume capacity)” value in the assay with conscious rats came out at 0.3 mg/kg os. Take `O=[N+]([O-])c1cccnc1N1CCC(=CC#Cc2ccccn2)CC1` [Example 9, 3-Nitro-2-[4-(3-pyridin-2-ylprop-2-ynylidene)piperidin-1-yl]pyridine]: the “"In vivo" cystometry MED (Minimal Effective Dose that induces statistically significant increase of bladder volume capacity)” value with conscious rats is given as 1 mg/kg os.
